From publication PMC3547732 (Chemistry Central Journal, 2012)

Columns and labels:
[1] = Enthalpy of solution by microreaction calorimetry; type: physicochemical; conditions: 25°C
[2] = tested on: Triton induced hyperlipidemia; assay: Hypolipidemic activity in Triton induced hyperlipidemia in rats; type: in vivo, male Wistar rats; conditions: Triton treated rats, 30 mg/kg oral gavage 2 h before Triton i.p., plasma 18 h after triton injection
Protocol: The rats were housed under optimal laboratory conditions, maintained on 12 h light and dark cycle and had free access to food (Hindustan Lever Products, Kolkata, India) and water. Animals were acclimatized to laboratory conditions before the tests. All experiments were carried out between 0900 and 1700 h. The experimental protocols were approved by the Institutional Animal Ethics Committee and conducted according to the Indian National Science Academy guidelines for the use and care of animals. Fifty five male Wistar rats were divided into the following 11 groups containing 5 animals in each group: Atrovastain and various solvates were freshly suspended in 0.5% carboxymethyl cellulose and administered by oral gavage. Two hours later, all groups except control animals received intraperitonial injection of Triton (100 mg/kg). Eighteen hours after triton injection, blood was collected from tail vein. Plasma was separated and stored at −20°C for further biochemical analysis. Total cholesterol and triglyceride were analyzed in plasma samples using diagnostic kits as per manufacturer instructions.

[3] = Desolvation of solvates by DSC and TGA; type: physicochemical; conditions: for Desolvation temperature: DSC desolvation endotherm maximum, 10°C/min; for Enthalpy of desolvation, ΔdesolvH calculated from equation 4: calculated from enthalpies of solution, heat capacities and enthalpy of vapourization; for Enthalpy of desolvation per mole of solvent (binding energy): equation 1 from DSC desolvation enthalpy and TGA mass loss
From the text: The desolvation temperatures account for the stability of solvates as the desolvation temperature in all these forms is much higher than the boiling point of the corresponding solvent. The quantitative estimate of the stability of these solvates is established by determining the binding energy for the solvents in all the solvates using equation 1 where the percent mass loss measured over the TG desolvation step of each solvate (ΔmS%) was related to the enthalpy change calculated over the corresponding DSC desolvation endotherm (ΔHSexp).
(1) ΔHS=ΔHSexp×100Δms%×Ms
where ΔHS (J mol^-1) is the enthalpy of desolvation (or binding energy) per mole of the bound solvent, MS is the molecular mass of the solvent.
(4) ΔdesolyH=ΔsolnH^2−ΔsolnH^1−ΔCPTdesoly−25+1/2ΔyapH
. A mass between 2–8 mg was taken into the aluminium pan, covered with lid and sealed. DSC curves were obtained under a nitrogen purge of 50 mL per minute at a heating rate of 10°C per minute with the temperature range from 50-350°C.
Loss of solvent from the samples was characterized by TGA obtained by TA Instruments-Waters LLC, USA. TGA traces were recorded at heating rates of 10°C per minute under a nitrogen purge of 50 ml per minute. Samples with masses between 1–10 mg were analyzed using platinum pan. Mass loss (%) was calculated based on the mass of the original sample.

[4] = Enthalpy of solution by microreaction calorimetry; type: physicochemical; conditions: for Molar enthalpy of solution in its own solvent, Solvates (ΔsolH^2): each solvate in its own solvent of solvation; for Molar enthalpy of solution in its own solvent, Solvates (ΔsolH^2) / Molar enthalpy of solution, Methanol ΔsolH (methanol): 25°C
Protocol: Molar enthalpy of solution (ΔHsol) was determined in phosphate buffer (pH8) as well as in methanol.
In order to determine the enthalpy associated with the solvation process the enthalpy of solution of a particular solvate was determined in its own solvent.
(3) ΔsolyH=ΔsolH^1−ΔsolH^2
Calorimetric studies were performed on Microreaction calorimeter obtained from Thermal Hazards Technology, UK. Two different solvents, viz, the phosphate buffer (pH 2) and methanol were used to determine the enthalpy of solution and the measurements were performed at 25°C. The size of sample used in this study ranged from 10 to 20 mg and was weighed (Sartorius Model CP225D) into a cylindrical glass tube covered with parafilm on one side. This cylindrical tube was submerged into the ampoule containing the solvent. A plunger with a cap was put from the open end of the tube. The same solvent was put into the reference ampoule. These were put into the sample and reference holes until both rest on the base of the holes. The apparatus was maintained at constant temperature at 25°C (±0.0005°C). The parafilm was shattered mechanically by means of plunger.

Row | Compound | Molar enthalpy of solution, Phosphate buffer (pH8) ΔsolH [1] [kJ mol^-1] | Total Cholesterol [2] [mg/dL] | Triglyceride [2] [mg/dL] | Desolvation temperature ([3]; listed as III) | Desolvation temperature ([3]; listed as Solvate- III) [°C] | Enthalpy of desolvation, ΔdesolvH calculated from equation 4 [3] [kJ/mol] | Enthalpy of desolvation per mole of solvent (binding energy) [3] [kJ/mol] | Enthalpy of desolvation, ΔdesolvH from DSC [3] [kJ/mol] | Molar enthalpy of solution in its own solvent, Solvates (ΔsolH^2) [4] [kJ/mol] | Molar enthalpy of solution, Methanol ΔsolH (methanol) [4] [kJ/mol] | Desolvation temperature ([3]; listed as Solvate-VII) [°C] | Desolvation temperature ([3]; listed as VII) [°C] | Enthalpy of solvation ΔsolvH ([4]; calculated by equation 3 from enthalpies of solution of drug and solvate in the solvent of solvation) [kJ/mol]
1 | CC(C)c1c(C(=O)Nc2ccccc2)c(-c2ccccc2)c(-c2ccc(F)cc2)n1CC[C@@H](O)C[C@@H](O)CC(=O)[O-].CC(C)c1c(C(=O)Nc2ccccc2)c(-c2ccccc2)c(-c2ccc(F)cc2)n1CC[C@@H](O)C[C@@H](O)CC(=O)[O-].CCO.[Ca+2] [Solvate III] | 5.46 | 203 | 172 | 90(±8) °C | 90.42 | 34.39 | 63.34 | 44.69 | -7.61 | 3.05 | – | – | –
2 | CC(C)c1c(C(=O)Nc2ccccc2)c(-c2ccccc2)c(-c2ccc(F)cc2)n1CC[C@@H](O)C[C@@H](O)CC(=O)[O-].CC(C)c1c(C(=O)Nc2ccccc2)c(-c2ccccc2)c(-c2ccc(F)cc2)n1CC[C@@H](O)C[C@@H](O)CC(=O)[O-].CC(C)c1c(C(=O)Nc2ccccc2)c(-c2ccccc2)c(-c2ccc(F)cc2)n1CC[C@@H](O)C[C@@H](O)CC(=O)[O-].CC(C)c1c(C(=O)Nc2ccccc2)c(-c2ccccc2)c(-c2ccc(F)cc2)n1CC[C@@H](O)C[C@@H](O)CC(=O)[O-].CCO.O.O.[Ca+2].[Ca+2] [Solvate VII] | 16.98 | 202 | 167 | – | – | 103.96 | 106.61 | 104.64 | -4.25 | 12.7 | 105.13 | 105.1 | -116.74
